Experimental data: US20260215430A1, “HERBICIDAL COMPOSITIONS” (SYNGENTA CROP PROTECTION AG, priority 2022, published 2026)

Assays:
CHEAL [1] = test: Post-emergence study L-GLU+MST, CHEAL control; type: in vivo, Chenopodium Album L.; details: 7 days after treatment
Source text: (§1) In a post-emergence study of AMPA, CHEAL, and ABUTH (Velvet Leaf (Abutilon theophrast)) applications were done to 2 to 4-inch weeds with a spray volume of 15 gallons/acre. Treatments applied are described below, and further included an adjuvant.
The results of CHEAL control with L-GLU+MST mixtures at 7 days after treatment are summarized in the below matrix, where bolded values represent synergy as calculated by Colby.

Grasses = test: Postemergence field study on natural weed populations, grasses; type: in vivo; details: 28-31 DAA
CHEAL [2] = test: Post-emergence study L-GLU+BIR, CHEAL control; type: in vivo, Chenopodium Album L.; details: 9 days after treatment
Source text: (§2) In a post-emergence study of AMPA, CHEAL, and Setaria faberi (SETFA) applications were done to 2 to 4-inch weeds with a spray volume of 15 gallons/acre. Treatments applied are described below, and further included an adjuvant.
The results of CHEAL control with L-GLU+BIR (bicyclopyrone) mixtures at 9 days after treatment are summarized in the below matrix, where bolded values represent synergy as calculated by Colby.

ABUTH = test: Post-emergence study L-GLU+MST, ABUTH control; type: in vivo, Velvet Leaf (Abutilon theophrast); details: 7 days after treatment
Source text: as §1
The results of ABUTH control with L-GLU+MST mixtures at 7 days after treatment are summarized in the below matrix, where bolded values represent synergy as calculated by Colby.

AMAPA [3] = test: Post-emergence study L-GLU+MST, AMAPA control; type: in vivo, Amaranthus palmeri; details: 7 days after treatment
Source text: as §1
The results of AMAPA control with L-GLU+MST mixtures at 7 days after treatment are summarized in the below matrix, where bolded values represent synergy as calculated by Colby.

All weeds = test: Postemergence field study on natural weed populations, all weeds; type: in vivo; details: 28-31 DAA
[4] = tested on: SSBL (AMAPA, CHEAL, AMBEL); test: Postemergence field study on natural weed populations, small seeded broadleaf; type: in vivo; details: 28-31 DAA
Description: In a postemergence field study on a natural weed populations. Herbicides were applied to 4-5″ weeds and efficacy was evaluated at 14 and 28-35 days after application. Rates were in g ai/ha. Data shown was small seeded broadleaf (SSBL; AMPA=Amaranthus palmeri; CHEAL=Chenopodium Album L.; AMBEL=Ambrosia Artemisiifolia L.) control 28-31 DAA. 100% was completely dead and 0% was no plant response.

AMAPA [5] = test: Post-emergence study L-GLU+BIR, AMAPA control; type: in vivo, Amaranthus palmeri; details: 9 days after treatment
Source text: as §2
The results of AMAPA control with L-GLU+BIR (bicyclopyrone) mixtures at 9 days after treatment are summarized in the below matrix, where bolded values represent synergy as calculated by Colby.

SETFA = test: Post-emergence study L-GLU+BIR, SETFA control; type: in vivo, Setaria faberi
Source text: as §2
The results of SETFA control with L-GLU+BIR (bicyclopyrone) mixtures at 7 and 14 days after treatment, respectively, are summarized in the below matrix, where bolded values represent synergy as calculated by Colby.

Molecule: CP(=O)(O)CC[C@H](N)C(=O)O [L-glufosinate]
- % Control CHEAL (CHEAL [1]; L-GLU 5 g ai/ha alone): 3%
- % Control CHEAL (CHEAL [1]; L-GLU 10 g ai/ha alone): 8%
- % Control CHEAL (CHEAL [1]; L-GLU 30 g ai/ha alone): 72%
- % Control CHEAL (CHEAL [1]; L-GLU 60 g ai/ha alone): 90%
- % Control CHEAL (CHEAL [1]; L-GLU 120 g ai/ha alone): 90%
- control, Grasses (Grasses; L-glufosinate 328 g/ha): 83%
- % Control CHEAL (CHEAL [2]; L-GLU 5 g ai/ha alone): 0%
- % Control CHEAL (CHEAL [2]; L-GLU 10 g ai/ha alone): 13%
- % Control CHEAL (CHEAL [2]; L-GLU 30 g ai/ha alone): 38%
- % Control CHEAL (CHEAL [2]; L-GLU 60 g ai/ha alone): 88%
- % Control CHEAL (CHEAL [2]; L-GLU 120 g ai/ha alone): 100%
- % Control ABUTH (ABUTH; L-GLU 5 g ai/ha alone): 2%
- % Control ABUTH (ABUTH; L-GLU 10 g ai/ha alone): 8%
- % Control ABUTH (ABUTH; L-GLU 30 g ai/ha alone): 38%
- % Control ABUTH (ABUTH; L-GLU 60 g ai/ha alone): 67%
- % Control ABUTH (ABUTH; L-GLU 120 g ai/ha alone): 87%
- % Control AMAPA (AMAPA [3]; L-GLU 5 g ai/ha alone): 27%
- % Control AMAPA (AMAPA [3]; L-GLU 10 g ai/ha alone): 33%
- % Control AMAPA (AMAPA [3]; L-GLU 30 g ai/ha alone): 83%
- % Control AMAPA (AMAPA [3]; L-GLU 60 g ai/ha alone): 97%
- % Control AMAPA (AMAPA [3]; L-GLU 120 g ai/ha alone): 100%
- control, All weeds (All weeds; L-glufosinate 328 g/ha): 70%
- control, SSBL (AMAPA, CHEAL, AMBEL) ([4]; L-glufosinate 328 g/ha): 55%
- % Control AMAPA (AMAPA [5]; L-GLU 5 g ai/ha alone): 17%
- % Control AMAPA (AMAPA [5]; L-GLU 10 g ai/ha alone): 23%
- % Control AMAPA (AMAPA [5]; L-GLU 30 g ai/ha alone): 57%
- % Control AMAPA (AMAPA [5]; L-GLU 60 g ai/ha alone): 87%
- % Control AMAPA (AMAPA [5]; L-GLU 120 g ai/ha alone): 93%
- % Control SETFA (SETFA; L-GLU 5 g ai/ha alone, 14 Days after Treatment): 10%
- % Control SETFA (SETFA; L-GLU 5 g ai/ha alone, 7 days after treatment): 13%
- % Control SETFA (SETFA; L-GLU 10 g ai/ha alone, 14 Days after Treatment): 35%
- % Control SETFA (SETFA; L-GLU 10 g ai/ha alone, 7 days after treatment): 48%
- % Control SETFA (SETFA; L-GLU 30 g ai/ha alone, 14 Days after Treatment): 65%
- % Control SETFA (SETFA; L-GLU 30 g ai/ha alone, 7 days after treatment): 85%
- % Control SETFA (SETFA; L-GLU 60 g ai/ha alone, 14 Days after Treatment): 89%
- % Control SETFA (SETFA; L-GLU 60 g ai/ha alone, 7 days after treatment): 95%
- % Control SETFA (SETFA; L-GLU 120 g ai/ha alone, 14 Days after Treatment): 100%
- % Control SETFA (SETFA; L-GLU 120 g ai/ha alone, 7 days after treatment): 100%

Molecule: CS(=O)(=O)c1ccc(C(=O)C2C(=O)CCCC2=O)c([N+](=O)[O-])c1 [Mesotrione]
- % Control CHEAL (CHEAL [1]; MST 1.5 g ai/ha alone): 78%
- % Control CHEAL (CHEAL [1]; MST 3 g ai/ha alone): 85%
- % Control CHEAL (CHEAL [1]; MST 6 g ai/ha alone): 92%
- % Control CHEAL (CHEAL [1]; MST 12 g ai/ha alone): 93%
- % Control CHEAL (CHEAL [1]; MST 24 g ai/ha alone): 93%
- % Control CHEAL (CHEAL [1]; MST 60 g ai/ha alone): 90%
- control, Grasses (Grasses; Mesotrione 105 g/ha): 35%
- % Control ABUTH (ABUTH; MST 1.5 g ai/ha alone): 85%
- % Control ABUTH (ABUTH; MST 3 g ai/ha alone): 83%
- % Control ABUTH (ABUTH; MST 6 g ai/ha alone): 95%
- % Control ABUTH (ABUTH; MST 12 g ai/ha alone): 92%
- % Control ABUTH (ABUTH; MST 24 g ai/ha alone): 96%
- % Control ABUTH (ABUTH; MST 60 g ai/ha alone): 92%
- % Control AMAPA (AMAPA [3]; MST 1.5 g ai/ha alone): 20%
- % Control AMAPA (AMAPA [3]; MST 3 g ai/ha alone): 30%
- % Control AMAPA (AMAPA [3]; MST 6 g ai/ha alone): 37%
- % Control AMAPA (AMAPA [3]; MST 12 g ai/ha alone): 72%
- % Control AMAPA (AMAPA [3]; MST 24 g ai/ha alone): 85%
- % Control AMAPA (AMAPA [3]; MST 60 g ai/ha alone): 85%
- control, All weeds (All weeds; Mesotrione 105 g/ha): 44%
- control, SSBL (AMAPA, CHEAL, AMBEL) ([4]; Mesotrione 105 g/ha): 26%

Molecule: bicyclopyrone
- % Control CHEAL (CHEAL [2]; BIR 1.56 g ai/ha alone): 58%
- % Control CHEAL (CHEAL [2]; BIR 3.13 g ai/ha alone): 75%
- % Control CHEAL (CHEAL [2]; BIR 6.25 g ai/ha alone): 88%
- % Control CHEAL (CHEAL [2]; BIR 12.5 g ai/ha alone): 92%
- % Control CHEAL (CHEAL [2]; BIR 25 g ai/ha alone): 96%
- % Control CHEAL (CHEAL [2]; BIR 50 g ai/ha alone): 97%
- % Control AMAPA (AMAPA [5]; BIR 1.56 g ai/ha alone): 27%
- % Control AMAPA (AMAPA [5]; BIR 3.13 g ai/ha alone): 37%
- % Control AMAPA (AMAPA [5]; BIR 6.25 g ai/ha alone): 48%
- % Control AMAPA (AMAPA [5]; BIR 12.5 g ai/ha alone): 53%
- % Control AMAPA (AMAPA [5]; BIR 25 g ai/ha alone): 80%
- % Control AMAPA (AMAPA [5]; BIR 50 g ai/ha alone): 90%
- % Control SETFA (SETFA; BIR 3.13 g ai/ha alone, 7 Days after Treatment): 28%
- % Control SETFA (SETFA; BIR 3.13 g ai/ha alone, 14 Days after Treatment): 23%
- % Control SETFA (SETFA; BIR 6.25 g ai/ha alone, 7 Days after Treatment): 35%
- % Control SETFA (SETFA; BIR 6.25 g ai/ha alone, 14 Days after Treatment): 32%
- % Control SETFA (SETFA; BIR 12.5 g ai/ha alone, 7 Days after Treatment): 62%
- % Control SETFA (SETFA; BIR 12.5 g ai/ha alone, 14 Days after Treatment): 45%
- % Control SETFA (SETFA; BIR 25 g ai/ha alone, 7 Days after Treatment): 73%
- % Control SETFA (SETFA; BIR 25 g ai/ha alone, 14 Days after Treatment): 58%
- % Control SETFA (SETFA; BIR 50 g ai/ha alone, 7 Days after Treatment): 78%
- % Control SETFA (SETFA; BIR 50 g ai/ha alone, 14 Days after Treatment): 75%
- % Control SETFA (SETFA; BIR 100 g ai/ha alone, 7 Days after Treatment): 77%
- % Control SETFA (SETFA; BIR 100 g ai/ha alone, 14 Days after Treatment): 90%
